Test results: ChEMBL document CHEMBL1154915, “Selection of inhibitory peptides for Aurora-A kinase from a phage-displayed library of helix-loop-helix peptides” (Bioorg Med Chem Lett, 2010)
Active and inactive are the calls of the source. No rule for the calls is given here.

These compounds were tested against T1, Aurora kinase A (Homo sapiens) (UniProt O14965) (assay: Binding affinity to GST-tagged Aurora A after 1 hr by ELISA).
T1 sequence (whole entry): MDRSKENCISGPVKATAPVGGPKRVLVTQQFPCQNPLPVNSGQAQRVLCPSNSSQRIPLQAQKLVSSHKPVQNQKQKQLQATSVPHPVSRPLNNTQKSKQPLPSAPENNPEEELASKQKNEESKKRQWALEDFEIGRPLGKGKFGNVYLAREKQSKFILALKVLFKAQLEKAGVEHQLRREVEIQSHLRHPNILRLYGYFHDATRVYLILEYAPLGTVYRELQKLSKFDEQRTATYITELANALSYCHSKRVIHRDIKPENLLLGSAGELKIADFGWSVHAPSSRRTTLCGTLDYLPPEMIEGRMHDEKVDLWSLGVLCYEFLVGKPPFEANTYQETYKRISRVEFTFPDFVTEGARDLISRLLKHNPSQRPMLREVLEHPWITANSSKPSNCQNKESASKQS

Row | Structure (SMILES) | Activity
1 | CC(C)C[C@H](NC(=O)[C@H](C)NC(=O)[C@H](C)NC(=O)[C@H](CC(C)C)NC(=O)[C@H](CCC(=O)O)NC(=O)[C@H](C)NC(=O)[C@H](CCC(=O)O)NC(=O)[C@H](CC(C)C)NC(=O)[C@H](C)NC(=O)[C@H](C)NC(=O)[C@H](CC(C)C)NC(=O)[C@H](CCC(=O)O)NC(=O)[C@@H](C)N)C(=O)N[C@@H](CCC(=O)O)C(=O)NCC(=O)N[C@@H](CCCNC(=N)N)C(=O)N1CCC[C@H]1C(=O)N[C@@H](Cc1ccccc1)C(=O)N[C@@H](Cc1c[nH]c2ccccc12)C(=O)N[C@@H](CC(C)C)C(=O)N[C@@H](CC(=O)O)C(=O)N[C@@H](CCCNC(=N)N)C(=O)N[C@@H](CC(C)C)C(=O)N[C@@H](CC(C)C)C(=O)NCC(=O)N[C@@H](CCCCN)C(=O)N[C@@H](CC(C)C)C(=O)N[C@@H](C)C(=O)N[C@@H](C)C(=O)N[C@@H](CC(C)C)C(=O)N[C@@H](CCCCN)C(=O)N[C@@H](C)C(=O)N[C@@H](CCCCN)C(=O)N[C@@H](CC(C)C)C(=O)N[C@@H](C)C(=O)N[C@@H](C)C(=O)N[C@@H](CC(C)C)C(=O)N[C@@H](CCCCN)C(=O)N[C@@H](C)C(=O)O | Active
2 | CC(C)C[C@H](NC(=O)[C@H](C)NC(=O)[C@H](C)NC(=O)[C@H](CC(C)C)NC(=O)[C@H](CCC(=O)O)NC(=O)[C@H](C)NC(=O)[C@H](CCC(=O)O)NC(=O)[C@H](CC(C)C)NC(=O)[C@H](C)NC(=O)[C@H](C)NC(=O)[C@H](CC(C)C)NC(=O)[C@H](CCC(=O)O)NC(=O)[C@@H](C)N)C(=O)N[C@@H](CCC(=O)O)C(=O)NCC(=O)N[C@H](C(=O)N[C@@H](CC(C)C)C(=O)N[C@H](C(=O)N[C@H](C(=O)N[C@@H](CO)C(=O)N[C@@H](Cc1c[nH]c2ccccc12)C(=O)N[C@@H](CC(=O)O)C(=O)N1CCC[C@H]1C(=O)N[C@@H](Cc1c[nH]c2ccccc12)C(=O)NCC(=O)N[C@@H](CCCCN)C(=O)N[C@@H](CC(C)C)C(=O)N[C@@H](C)C(=O)N[C@@H](C)C(=O)N[C@@H](CC(C)C)C(=O)N[C@@H](CCCCN)C(=O)N[C@@H](C)C(=O)N[C@@H](CCCCN)C(=O)N[C@@H](CC(C)C)C(=O)N[C@@H](C)C(=O)N[C@@H](C)C(=O)N[C@@H](CC(C)C)C(=O)N[C@@H](CCCCN)C(=O)N[C@@H](C)C(=O)O)C(C)C)C(C)C)[C@H](C)O | Active
3 | CC(C)C[C@H](NC(=O)[C@H](C)NC(=O)[C@H](C)NC(=O)[C@H](CC(C)C)NC(=O)[C@H](CCC(=O)O)NC(=O)[C@H](C)NC(=O)[C@H](CCC(=O)O)NC(=O)[C@H](CC(C)C)NC(=O)[C@H](C)NC(=O)[C@H](C)NC(=O)[C@H](CC(C)C)NC(=O)[C@H](CCC(=O)O)NC(=O)[C@H](C)N)C(=O)N[C@@H](CCC(=O)O)C(=O)NCC(=O)N[C@@H](CCCNC(=N)N)C(=O)N[C@@H](CCCCN)C(=O)N[C@@H](CC(=O)O)C(=O)N[C@@H](Cc1ccc(O)cc1)C(=O)N[C@@H](Cc1ccccc1)C(=O)N[C@@H](Cc1cnc[nH]1)C(=O)N[C@@H](CC(C)C)C(=O)N[C@@H](Cc1c[nH]c2ccccc12)C(=O)N[C@@H](Cc1cnc[nH]1)C(=O)N[C@@H](CC(=O)O)C(=O)NCC(=O)N[C@@H](CCCCN)C(=O)N[C@@H](CC(C)C)C(=O)N[C@@H](C)C(=O)N[C@@H](C)C(=O)N[C@@H](CC(C)C)C(=O)N[C@@H](CCCCN)C(=O)N[C@@H](C)C(=O)N[C@H](CCCCN)C(=O)N[C@H](CC(C)C)C(=O)N[C@H](C)C(=O)N[C@H](C)C(=O)N[C@H](CC(C)C)C(=O)N[C@H](CCCCN)C(=O)N[C@H](C)C(=O)O | Active
4 | CC[C@H](C)[C@H](NC(=O)[C@H](CCCNC(=N)N)NC(=O)CNC(=O)[C@H](CC(C)C)NC(=O)[C@H](CC(C)C)NC(=O)[C@@H]1CCCN1C(=O)[C@H](CO)NC(=O)[C@H](Cc1c[nH]c2ccccc12)NC(=O)CNC(=O)[C@H](CCC(=O)O)NC(=O)[C@H](CC(C)C)NC(=O)[C@H](C)NC(=O)[C@H](C)NC(=O)[C@H](CC(C)C)NC(=O)[C@H](CCC(=O)O)NC(=O)[C@H](C)NC(=O)[C@H](CCC(=O)O)NC(=O)[C@H](CC(C)C)NC(=O)[C@H](C)NC(=O)[C@H](C)NC(=O)[C@H](CC(C)C)NC(=O)[C@H](CCC(=O)O)NC(=O)[C@@H](C)N)C(=O)N[C@@H](CC(C)C)C(=O)NCC(=O)N[C@@H](CCCCN)C(=O)N[C@@H](CC(C)C)C(=O)N[C@@H](C)C(=O)N[C@@H](C)C(=O)N[C@@H](CC(C)C)C(=O)N[C@@H](CCCCN)C(=O)N[C@@H](C)C(=O)N[C@@H](CCCCN)C(=O)N[C@@H](CC(C)C)C(=O)N[C@@H](C)C(=O)N[C@@H](C)C(=O)N[C@@H](CC(C)C)C(=O)N[C@@H](CCCCN)C(=O)N[C@@H](C)C(=O)O | Active
5 | CC[C@H](C)[C@H](NC(=O)[C@H](CCCNC(=N)N)NC(=O)[C@H](CCCNC(=N)N)NC(=O)[C@H](CO)NC(=O)[C@H](C)NC(=O)CNC(=O)[C@H](CCC(=O)O)NC(=O)[C@H](CC(C)C)NC(=O)[C@H](C)NC(=O)[C@H](C)NC(=O)[C@H](CC(C)C)NC(=O)[C@H](CCC(=O)O)NC(=O)[C@H](C)NC(=O)[C@H](CCC(=O)O)NC(=O)[C@@H]1CCCN1C(=O)[C@H](C)NC(=O)[C@H](C)NC(=O)[C@H](CC(C)C)NC(=O)[C@H](CCC(=O)O)NC(=O)[C@@H](C)N)C(=O)N[C@@H](CS)C(=O)N[C@@H](CS)C(=O)N[C@@H](CO)C(=O)N[C@@H](Cc1c[nH]c2ccccc12)C(=O)NCC(=O)N[C@@H](CCCCN)C(=O)N[C@@H](CC(C)C)C(=O)N[C@@H](C)C(=O)N[C@@H](C)C(=O)N[C@@H](CC(C)C)C(=O)N[C@@H](CCCCN)C(=O)N[C@@H](C)C(=O)N[C@@H](CCCCN)C(=O)N[C@@H](CC(C)C)C(=O)N[C@@H](C)C(=O)N[C@@H](C)C(=O)N[C@@H](CC(C)C)C(=O)N[C@@H](CCCCN)C(=O)N[C@@H](C)C(=O)O | Active
6 | CSCC[C@H](NC(=O)[C@@H]1CCCN1C(=O)[C@H](CCC(N)=O)NC(=O)[C@H](CO)NC(=O)CNC(=O)[C@H](Cc1c[nH]c2ccccc12)NC(=O)CNC(=O)[C@H](CCC(=O)O)NC(=O)[C@H](CC(C)C)NC(=O)[C@H](C)NC(=O)[C@H](C)NC(=O)[C@H](CC(C)C)NC(=O)[C@H](CCC(=O)O)NC(=O)[C@H](C)NC(=O)[C@H](CCC(=O)O)NC(=O)[C@H](CC(C)C)NC(=O)[C@H](C)NC(=O)[C@H](C)NC(=O)[C@H](CC(C)C)NC(=O)[C@H](CCC(=O)O)NC(=O)[C@@H](C)N)C(=O)N[C@@H](CC(=O)O)C(=O)N[C@@H](CO)C(=O)N[C@H](C(=O)NCC(=O)N[C@@H](CCCCN)C(=O)N[C@@H](CC(C)C)C(=O)N[C@@H](C)C(=O)N[C@@H](C)C(=O)N[C@@H](CC(C)C)C(=O)N[C@@H](CCCCN)C(=O)N[C@@H](C)C(=O)N[C@@H](CCCCN)C(=O)N[C@@H](CC(C)C)C(=O)N[C@@H](C)C(=O)N[C@@H](C)C(=O)N[C@@H](CC(C)C)C(=O)N[C@@H](CCCCN)C(=O)N[C@@H](C)C(=O)O)C(C)C | Active
